Experimental data as given in patent EP0510271A1, “Novel R106 compounds” (TAKARA SHUZO CO. LTD., priority 1991, dated 1992).
*1 amine or outer side, *2 acyl side, *3 side chain or, on linkers, in order; H or OH if unused. Where a SMILES comes first, the peptide text is derived from it. [ ]: non-standard residue; d: D form. ξ: configuration not given here. NMePhe(3-F) = CN[CH](Cc1cccc(F)c1)C(=O)O; NMePhe(2-F) = CN[CH](Cc1ccccc1F)C(=O)O; Phe(3-F) = N[CH](Cc1cccc(F)c1)C(=O)O; ξNMeVal(3-OH) = CNC(C(=O)O)C(C)(C)O; Phe(2-F) = N[CH](Cc1ccccc1F)C(=O)O; NMeY = CN[CH](Cc1ccc(O)cc1)C(=O)O; NMeF = CN[CH](Cc1ccccc1)C(=O)O; X1 = CCC(C)C(O[*:1])C(=O)[*:2]; Hyp = O=C(O)[CH]1C[CH](O)CN1; NMeV = CN[CH](C(=O)O)C(C)C; NMeS = CN[CH](CO)C(=O)O; Thz = O=C(O)[CH]1CSCN1

Test: solubility in water
Conditions: compared with antibiotics R106

Compound	solubility in water
CCC(C)C1NC(=O)C2CCCN2C(=O)C(Cc2ccc(O)cc2)N(C)C(=O)C(Cc2ccc(O)cc2)NC(=O)C(C(C)C)N(C)C(=O)C(C(C)CC)OC(=O)C(C(C)(C)O)N(C)C(=O)C(CC(C)C)NC(=O)C(C(C)C)N(C)C1=O (stereo not drawn) [Compound 3] (cyclo([ξNMeVal(3-OH)][X1][NMeV]Y[NMeY]PI[NMeV]L); configuration not given here)	higher solubility in water than antibiotics R106
CCC(C)C1NC(=O)C2CCCN2C(=O)C(Cc2ccccc2F)N(C)C(=O)C(Cc2ccccc2F)NC(=O)C(C(C)C)N(C)C(=O)C(C(C)CC)OC(=O)C(C(C)(C)O)N(C)C(=O)C(CC(C)C)NC(=O)C(C(C)C)N(C)C1=O (stereo not drawn) [Compound 1] (cyclo([ξNMeVal(3-OH)][X1][NMeV][Phe(2-F)][NMePhe(2-F)]PI[NMeV]L); configuration not given here)	higher solubility in water than antibiotics R106
CCC(C)C1NC(=O)C2CCCN2C(=O)C(CO)N(C)C(=O)C(Cc2ccccc2)NC(=O)C(C(C)C)N(C)C(=O)C(C(C)CC)OC(=O)C(C(C)(C)O)N(C)C(=O)C(CC(C)C)NC(=O)C(C(C)C)N(C)C1=O (stereo not drawn) [Compound 9] (cyclo([ξNMeVal(3-OH)][X1][NMeV]F[NMeS]PI[NMeV]L); configuration not given here)	higher solubility in water than antibiotics R106
CCC(C)C1NC(=O)C2CCCN2C(=O)C(Cc2cccc(F)c2)N(C)C(=O)C(Cc2cccc(F)c2)NC(=O)C(C(C)C)N(C)C(=O)C(C(C)CC)OC(=O)C(C(C)(C)O)N(C)C(=O)C(CC(C)C)NC(=O)C(C(C)C)N(C)C1=O (stereo not drawn) [Compound 2] (cyclo([ξNMeVal(3-OH)][X1][NMeV][Phe(3-F)][NMePhe(3-F)]PI[NMeV]L); configuration not given here)	higher solubility in water than antibiotics R106
CCC(C)C1NC(=O)C2CC(O)CN2C(=O)C(Cc2ccccc2)N(C)C(=O)C(Cc2ccccc2)NC(=O)C(C(C)C)N(C)C(=O)C(C(C)CC)OC(=O)C(C(C)(C)O)N(C)C(=O)C(CC(C)C)NC(=O)C(C(C)C)N(C)C1=O (stereo not drawn) [Compound 4] (cyclo([ξNMeVal(3-OH)][X1][NMeV]F[NMeF][Hyp]I[NMeV]L); configuration not given here)	higher solubility in water than antibiotics R106
CCC(C)C1NC(=O)C2CSCN2C(=O)C(Cc2ccccc2)N(C)C(=O)C(Cc2ccccc2)NC(=O)C(C(C)C)N(C)C(=O)C(C(C)CC)OC(=O)C(C(C)(C)O)N(C)C(=O)C(CC(C)C)NC(=O)C(C(C)C)N(C)C1=O (stereo not drawn) [Compound 5] (cyclo([ξNMeVal(3-OH)][X1][NMeV]F[NMeF][Thz]I[NMeV]L); configuration not given here)	higher solubility in water than antibiotics R106
